Data published in patent US20090269409A1, “PHARMACEUTICAL COMPOSITIONS COMPRISING ESZOPICLONE” (priority 2008, published 2009).
Values after ≈ are worked out from the molar mass of the structure shown. Like-named read-outs stand apart in the source and are kept apart here.

How the values were obtained:
[1] = Saturated solubility of eszopiclone in various solvents (shake flask, HPLC); format: physicochemical; conditions: thermodynamic from solid, room temperature
Experimental: 1) 100 mL of the solvent was placed into a 250 mL volumetric flask.
2) 10 mg of eszopiclone was added to the flask.
3) The flask contents were mixed for 24 hours using a rotary shaker to dissolve the eszopiclone completely.
4) Eszopiclone was added at room temperature to the clear solution of 3) in small amounts (up to about 100 mg) until undissolved eszopiclone was noted after shaking.
5) The flask was subjected to shaking for an additional 24 hours.
6) Presence of insoluble eszopiclone was checked and the pH of the solution was recorded.
7) A portion of step 6) solution was subjected to centrifugation until a clear solution was obtained, and/or was filtered through an ASTM #40 mesh sieve.
8) Content of the drug substance was determined using HPLC, comparing with a standard solution prepared preferably in the same solvent.
9) Amount of the drug substance dissolved was calculated as a percentage (weight/volume): […]
The actual amount of drug substance dissolved in mg is:
The solubility of the drug substance in mg/ml in the solvent medium tested is: S=m÷100.
Saturated solubility was determined in solvents as described below.

[2] = cited from earlier work
[3] = Excipient compatibility and stability study of eszopiclone/excipient mixtures (impurity analysis before and after storage); format: physicochemical
Experimental: 1) Eszopiclone and excipient in the stated ratios were mixed well and sifted through an ASTM #40 mesh sieve.
2) The mixture was placed into 20 mL amber glass vials and stored under conditions of 40° C. and 75% relative humidity (RH), or at 50° C., for 1 month. Impurity analyses were performed before and after storage, and values in the table below are percentages of the initial eszopiclone content.

[4] = Observed susceptibility of eszopiclone to degradation; format: physicochemical; conditions: with significant increase in the 5-chloro-2-aminopyridine content
[5] = 1 Month, 40° C./75% RH, amber glass vials
[6] = 1 Month, 50° C., amber glass vials

## CN1CCN(C(=O)O[C@H]2c3nccnc3C(=O)N2c2ccc(Cl)cn2)CC1 [Eszopiclone, (+)-(5S)-6-(5-chloropyridin-2-yl)-7-oxo-6,7-dihydro-[3,4-b]pyrazin-5-yl-4-methylpiperazine-1-carboxylate]
[1]; aqueous buffer, Acetate buffer (pH 4.5)
  solubility at 24 h: 11600 µg/mL (≈ 29.9 mM)
[1]; aqueous buffer, Phosphate buffer (pH 6.8)
  solubility at 24 h: 680 µg/mL (≈ 1.75 mM)
[1]; aqueous buffer, Phosphate buffer (pH 7.5)
  solubility at 24 h: 330 µg/mL (≈ 0.849 mM)
[1]; aqueous with cosolvent or surfactant or cyclodextrin, 0.5% Sodium lauryl sulphate in water
  solubility at 24 h: 1830 µg/mL (≈ 4.71 mM)
[1]; simulated gastric fluid, 0.01N HCl
  solubility at 24 h: 4180 µg/mL (≈ 10.8 mM)
[1]; simulated gastric fluid, 0.1N Hydrochloric acid (pH 1.2)
  solubility at 24 h: 39100 µg/mL (≈ 101 mM)
[1]; simulated gastric fluid, Acid buffer (pH 1), potassium chloride/HCl
  solubility at 24 h: 23000 µg/mL (≈ 59.2 mM)
[1]; Simulated gastric fluid (pH 1.2)
  solubility at 24 h: 8180 µg/mL (≈ 21 mM)
[1]; Water
  solubility at 24 h: 300 µg/mL (≈ 0.772 mM)
[2]; in ethanol
  Solubility (descriptive): slightly soluble
[2]; in phosphate buffer of pH 3.2
  Solubility (descriptive): soluble
[2]; in water
  Solubility (descriptive): very slightly soluble
[3]; [5]
  Imp (5-chloro-2-aminopyridine): 0.47 percentages of the initial eszopiclone content
  T.I. (Total impurities): 0.33 percentages of the initial eszopiclone content
[3]; [6]
  Imp (5-chloro-2-aminopyridine): 0.35 percentages of the initial eszopiclone content
  T.I. (Total impurities): 0.5 percentages of the initial eszopiclone content
[3]; Initial
  Imp (5-chloro-2-aminopyridine): 0.01 percentages of the initial eszopiclone content
  T.I. (Total impurities): 0.02 percentages of the initial eszopiclone content
[4]
  Susceptibility to oxidative degradation (including by atmospheric oxygen) and acid hydrolysis: highly susceptible
